Earlier results as cited in PMC9762682, “Tocotrienols: Exciting Biological and Pharmacological Properties of Tocotrienols and Naturally Occurring Compounds, Part II” (Annals of clinical case reports, 2022).

Columns and labels:
Melanoma cells = system: Melanoma cells; design: method as in PMID 29606130
B-Lymphocyte cells = system: B-Lymphocyte cells; design: method as in PMID 29606130; value at effective dose: unit not given here;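 for IC50: anti-proliferation of cancer cells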
Pancreas cancer cells = system: Pancreas cancer cells; design: method as in PMID 29606130; value at effective dose: unit not given here; conditions: for effective dose / percentage of control at effective dose / value at effective dose: 48 h
Liver cancer cells = system: Liver cancer cells; design: method as in PMID 29606130; value at effective dose: unit not given here; conditions: for effective dose / percentage of control at effective dose / value at effective dose: 48 h
Lung cancer cells = system: Lung cancer cells; design: method as in PMID 29606130; value at effective dose: unit not given here
T-cells (Jurkat) = system: T-cells (Jurkat); design: method as in PMID 29606130; value at effective dose: unit not given here
Breast cancer cells = system: Breast cancer cells; design: method as in PMID 29606130; value at effective dose: unit not given here;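 for IC50: anti-proliferation of cancer cells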
Prostate cancer cells = system: Prostate cancer cells; design: method as in PMID 29606130; value at effective dose: scale not given here; conditions: for effective dose / percentage of control at effective dose / value at effective dose: 48 h;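 for IC50: anti-proliferation of cancer cells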
Hela cells = system: Hela cells; design: method as in PMID 29606130; value at effective dose: unit not given here; conditions: for effective dose / percentage of control at effective dose / value at effective dose: 48 h;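 for IC50: anti-proliferation of cancer cells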
people with T2DM = conditions: for Fasting Glucose, Post-dose, percentage of control (pre-dose) in parentheses / MDA, Post-dose / MDA, Post-dose, percentage of control (pre-dose) in parentheses / hs-CRP, Post-dose / hs-CRP, Post-dose, percentage of control (pre-dose) in parentheses / Fasting Glucose, Post-dose: serum; for Fasting Glucose, Post-dose, percentage of control (pre-dose) in parentheses / MDA, Post-dose / MDA, Post-dose, percentage of control (pre-dose) in parentheses / hs-CRP, Post-dose / hs-CRP, Post-dose, percentage of control (pre-dose) in parentheses / Fasting HbA1c, Post-dose / Fasting HbA1c, Post-dose, percentage of control (pre-dose) in parentheses / HOMA-IR, Post-dose / HOMA-IR, Post-dose, percentage of control (pre-dose) in parentheses: two capsules/d for 24-weeks; for Fasting Glucose, Post-dose: two capsules/d for 24-weeks (δ-tocotrienol 250 mg, vitamin D3 5000 IU, resveratrol 250 mg per capsule)

## C[C@@H]1C[C@H]2[C@@H]3CCC4=CC(=O)C=C[C@]4(C)[C@@]3(F)[C@@H](O)C[C@]2(C)[C@@]1(O)C(=O)CO [Dexamethasone]
Melanoma cells
  effective dose: 40 µM
  percentage of control at effective dose: 74%
B-Lymphocyte cells
  IC50: 5 µM
  effective dose: 10 µM
  percentage of control at IC50 dose: 45%
  percentage of control at effective dose: 41%
  value at effective dose: 61.0 ± 3.6
Pancreas cancer cells
  effective dose: 20 µM
  percentage of control at effective dose: 73%
  value at effective dose: 34.7 ± 4.0
Liver cancer cells
  effective dose: 80 µM
  percentage of control at effective dose: 93%
  value at effective dose: 67.3 ± 4.0
Lung cancer cells
  IC50: 2.5 µM
  effective dose: 20 µM
  percentage of control at IC50 dose: 47%
  percentage of control at effective dose: 76%
  value at effective dose: 16.7 ± 2.1
T-cells (Jurkat)
  effective dose: 40 µM
  percentage of control at effective dose: 71%
  value at effective dose: 282.0 ± 21.7
Breast cancer cells
  effective dose: 80 µM
  percentage of control at effective dose: 85%
  value at effective dose: 15.7 ± 3.1
Prostate cancer cells
  IC50: 2.5 µM
  percentage of control at IC50 dose: 45%
  effective dose: 20 µM
  percentage of control at effective dose: 32%
  value at effective dose: 16.7 ± 1.5
Hela cells
  IC50: 20 µM
  percentage of control at IC50 dose: 54%
  effective dose: 80 µM
  percentage of control at effective dose: 53%
  value at effective dose: 18.0 ± 4.0

## C=C[C@H]1C[N@@]2CC[C@H]1C[C@H]2[C@H](O)c1ccnc2ccc(OC)cc12 [Quinine Sulphate]
Melanoma cells
  IC50: 80 µM
  effective dose: 20 µM
  percentage of control at IC50 dose: 50%
  percentage of control at effective dose: 56%
B-Lymphocyte cells
  effective dose: 80 µM
  percentage of control at effective dose: 19%
Pancreas cancer cells
  effective dose: 40 µM
  percentage of control at effective dose: 78%
  value at effective dose: 35.0 ± 3.0
Liver cancer cells
  IC50: 80 µM
  percentage of control at IC50 dose: 58%
  effective dose: 80 µM
  percentage of control at effective dose: 58%
  value at effective dose: 47.7 ± 2.1
Lung cancer cells
  effective dose: 40 µM
  percentage of control at effective dose: 66%
T-cells (Jurkat)
  IC50: 80 µM
  effective dose: 40 µM
  percentage of control at IC50 dose: 50%
  percentage of control at effective dose: 77%
  value at effective dose: 267.7 ± 29.7
Breast cancer cells
  effective dose: 80 µM
  percentage of control at effective dose: 60%
  value at effective dose: 12.3 ± 2.3
Prostate cancer cells
  IC50: 20 µM
  percentage of control at IC50 dose: 36%
  effective dose: 20 µM
  percentage of control at effective dose: 36%
  value at effective dose: 15.7 ± 2.1
Hela cells
  IC50: 10 µM
  percentage of control at IC50 dose: 24%
  effective dose: 20 µM
  percentage of control at effective dose: 19%

## C=C(NC(=O)C(=C)NC(=O)c1csc(C2=N[C@@H]3c4csc(n4)[C@H]4NC(=O)c5csc(n5)[C@H]([C@](C)(O)[C@@H](C)O)NC(=O)[C@H]5CSC(=N5)/C(=C/C)NC(=O)[C@H]([C@@H](C)O)NC(=O)c5csc(n5)[C@]3(CC2)NC(=O)[C@H](C)NC(=O)C(=C)NC(=O)[C@H](C)NC(=O)[C@H]([C@@H](C)CC)N[C@@H]2C=Cc3c([C@H](C)O)cc(nc3[C@H]2O)C(=O)O[C@@H]4C)n1)C(N)=O [Thiostrepton]
Melanoma cells
  effective dose: 5 µM
  percentage of control at IC50 dose: 34%
  percentage of control at effective dose: 13%
B-Lymphocyte cells
  effective dose: 2.5 µM
  percentage of control at IC50 dose: 23%
  percentage of control at effective dose: 23%
  value at effective dose: 15.7 ± 4.0
Pancreas cancer cells
  IC50: 5 µM
  percentage of control at IC50 dose: 29%
  effective dose: 10 µM
  percentage of control at effective dose: 16%
  value at effective dose: 7.7 ± 0.6
Liver cancer cells
  IC50: 2.5 µM
  percentage of control at IC50 dose: 53%
  effective dose: 10 µM
  percentage of control at effective dose: 8%
  value at effective dose: 6.7 ± 2.2
Lung cancer cells
  IC50: 5 µM
  effective dose: 5 µM
  percentage of control at IC50 dose: 48%
  percentage of control at effective dose: 28%
  value at effective dose: 7.0 ± 2.0
T-cells (Jurkat)
  effective dose: 2.5 µM
  percentage of control at IC50 dose: 5%
  percentage of control at effective dose: 5%
  value at effective dose: 21.3 ± 2.1
Breast cancer cells
  IC50: 20 µM
  effective dose: 10 µM
  percentage of control at IC50 dose: 16%
  percentage of control at effective dose: 29%
  value at effective dose: 6.7 ± 0.6
Prostate cancer cells
  IC50: 2.5 µM
  percentage of control at IC50 dose: 53%
  effective dose: 5 µM
  percentage of control at effective dose: 19%
  value at effective dose: 7.0 ± 1.7
Hela cells
  IC50: 10 µM
  percentage of control at IC50 dose: 24%
  effective dose: 40 µM
  percentage of control at effective dose: 16%
  value at effective dose: 8.7 ± 1.5

## C=C1CC[C@H](O)C/C1=C/C=C1\CCC[C@]2(C)[C@@H]([C@H](C)CCCC(C)C)CC[C@@H]12 [Vitamin D3]
People with T2DM
  Fasting Glucose, Post-dose, percentage of control (pre-dose) in parentheses: 95%
  MDA, Post-dose: 3.48 µmol/L
  MDA, Post-dose, percentage of control (pre-dose) in parentheses: 97%
  hs-CRP, Post-dose: 3.09 mg/L
  hs-CRP, Post-dose, percentage of control (pre-dose) in parentheses: 92%
  Fasting Glucose, Post-dose: 7.16 mmol/L
  Fasting HbA1c, Post-dose: 8.19%
  Fasting HbA1c, Post-dose, percentage of control (pre-dose) in parentheses: 93%
  HOMA-IR, Post-dose: 4.74
  HOMA-IR, Post-dose, percentage of control (pre-dose) in parentheses: 89%

## Oc1ccc(/C=C/c2cc(O)cc(O)c2)cc1 [trans-Resveratrol]
People with T2DM
  Fasting Glucose, Post-dose, percentage of control (pre-dose) in parentheses: 94%
  MDA, Post-dose: 3.49 µmol/L
  MDA, Post-dose, percentage of control (pre-dose) in parentheses: 91%
  hs-CRP, Post-dose: 3.28 mg/L
  hs-CRP, Post-dose, percentage of control (pre-dose) in parentheses: 89%
  Fasting Glucose, Post-dose: 6.98 mmol/L
  Fasting HbA1c, Post-dose: 7.86%
  Fasting HbA1c, Post-dose, percentage of control (pre-dose) in parentheses: 92%
  HOMA-IR, Post-dose: 4.98
  HOMA-IR, Post-dose, percentage of control (pre-dose) in parentheses: 93%
